We go through two molecules from patent US20250353835A1, “N-TETRAZOLYL ARYL UREA-BASED DERIVATIVES, PREPARATION METHOD THEREFOR, AND USE THEREOF” (Hangzhou Yirui Pharmaceutical Technology Co., Ltd, priority 2022, published 2025).

Data set [1] can be described thus: Liver microsomal metabolism in vitro, rat LM clearance. In kind it is in vitro ADME. The conditions noted are these: rat liver microsomes in vitro. The method, then: (§1) In addition, the LC-MS/MS method was used to determine the substrate metabolites of 5 major subtypes of human liver microsomal CYP450 enzymes (including CYP1A2, CYP2D6, CYP2C8, CYP2C9, and CYP3A4). The substrate method was used to determine the activity of human liver microsomal CYP450 enzyme. The established incubation system was verified using known inhibitors to investigate the inhibitory effect of the compound on CYP450 enzyme. For the enzyme induction test, a primary cultured human hepatocyte incubation system was used. 3-methylcholanthrene, phenobarbital, and rifampicin were used as positive control inducers of CYP1A2, CYP2B6, and CYP3A4, and phenacetin, bupropion, and testosterone were used as the substrate for CYP1A2, CYP2B6, and CYP3A4. The CYP450 enzyme activity was calculated by measuring the generation rate of 3 specific substrate metabolites in the incubation solution. Meanwhile, the total RNA was extracted from the human hepatocytes after incubation, and the real-time fluorescence quantitative PCR method was used to determine the mRNA expression level of CYP1A2, […], and CYP3A4. The enzyme activity and mRNA transcription level were used as endpoints to investigate the inductive effect of the compound on human liver P450 isoenzymes CYP1A2, […], and CYP3A4. The liver microsomal metabolism parameters in vitro are shown in Table 2B3 taking Compound 8 as an example.

Data set [2] is described as follows: Liver microsomal metabolism in vitro, human LM clearance. The conditions noted are these: human liver microsomes in vitro. The format is in vitro ADME. As to the method: as §1
A short description of data set [3]: Drug concentration in rat retinas after intraocular injection (HPLC). Particulars: retina. In kind it is in vivo, Wistar rats. The source says:
1.1 Experimental aminals: SPF-grade male Wistar rats weighed 180-220 g.
1.2 Drugs and reagents: Compound 71; sodium chloride injection (Shandong Qidu Pharmaceutical Co., Ltd., Batch No.: 3B151014124); acetonitrile (chromatographically pure, TEDIA, USA); methanol (chromatographically pure, SIGMA-ALDRICH product); triethylamine (analytically pure, Hangzhou Gaojing Fine Chemical Co., Ltd.).
1.3 Experimental grouping and administration: according to the sampling time, 33 male Wistar rats were divided into 11 groups (three rats per group) of: (1) control group; (2) 0 h; (3) 2 h; (4) 6 h; (5) 24 h; (6) 48 h; (7) 72 h; (8) 5 d; (9) 7 d; (10) 10 d; (11) 14 d. Three rats in the control group were injected with solvent (sterile normal saline) intraocularly, and the remaining 30 rats were injected with Compound 71 intraocularly at a concentration of 0.5% by using a 5 μL microinjector, and 5 μL of drug was injected per bulbus oculi.
1.4 Sampling and detection index: The retina of the rat in the control group was taken on Day 14 (14 d), and the retina of the remaining 30 rats was taken at the corresponding time points. The retina were frozen in liquid nitrogen, and then subjected to the subsequent HPLC detection.
1.5.1 Chromatographic conditions: The mobile phase was chromatographic grade acetonitrile-water=25-75 (v/v). The flow rate was 0.5 mL/min. The column temperature was 25° C. The UV detection wavelength was 254 nm. The injection volume was 20 μL.
1.5.2 Sample processing and preparation: the sample of the rat retina was taken out from the ultra-low temperature (−80° C.) refrigerator, accurately weighed and placed in a glass homogenizer, and ethyl acetate as an organic solvent pre-cooled in a 4° C. refrigerator was added at a ratio of 100 mL/g. The homogenizer was placed in an ice bath for homogenization. After homogenization, all the homogenate was poured into a 5 mL stoppered centrifuge tube. The centrifugation was performed at a low temperature of 4° C. for 5 min (5000 r/min). All the organic phase as the upper layer was accurately taken out and placed in a glass tube with conical bottom. The remaining residue of retina was extracted with 2 mL ethyl acetate repeatedly once. After centrifugation, the two organic phases were combined. Then, the centrifuge tube with conical bottom was blowed for dryness in a nitrogen flow in a 45° C. water bath. The residue was redissolved with 0.1 mL of chromatographic methanol, vortex mixed for 1 min, and centrifuged for 5 min at a high speed of 18000 r/min. 20 μL of the supernatant was taken, and analyzed in a high-performance liquid chromatography system.
1.5.3 Sample determination: After intraocular injection of 5 μL of 0.5% Compound 71, the retina was taken at different time points to analyze the drug content of the test compound in the retina.
1.5.4 Experimental results and conclusions: According to the retinal drug concentration-time curve, it is in conformity to the non-absorption two-compartment model. According to the pharmacokinetic non-absorption two-compartment model theory, the pharmacokinetic parameters of the drug were calculated.

The mark [4] stands for this setting: intraocular injection of 5 μL of 0.5% per eye, two-compartment model.

Read-outs that look alike come from different tables or passages of the source.

In the case of `CCOc1ccc(-c2c(F)cc(NC(=O)N3CCC(C(C)(C)C)CC3)cc2-c2nn[nH]n2)cn1` [Compound 8, 4-(tert-butyl)-N-(4-(6-ethoxypyrid-3-yl)-3-fluoro-5-(2H-tetrazol-5-yl)phenyl)piperidine-1-carboxamide], the “Rat LM clearance” value in data set [1] came out at 9.83 mL/min/kg. Further, in data set [2], the “Human LM clearance” value amounted to 8.5 mL/min/kg.
As for `CCOc1ccc(-c2ccc(NC(=O)N[C@H]3CC[C@H](C)CC3)cc2-c2nn[nH]n2)cn1` [Compound 71, 1-(4-(6-ethoxypyrid-3-yl)-3-(2H-tetrazol-5-yl)phenyl)-3-((trans)-4-methylcyclohexyl)urea], the concentration at 14 d in data set [3] (male, Wistar, rat, other: intraocular injection, 5 μL of 0.5% solution per eye, Day 14 after intraocular injection of 0.5% (5 μL per eye), read-out: retinal concentration) was determined as 1240 nM. Further, the half-life in data set [3] (male, Wistar, rat, topical or ocular, 5 μL of 0.5% solution per eye, intraocular injection of 5 μL of 0.5% per eye, two-compartment model, read-out: Distribution half-life (converted)) is 6.97 h. The half-life in data set [3] (male, Wistar, rat, topical or ocular, 5 μL of 0.5% solution per eye, intraocular injection of 5 μL of 0.5% per eye, two-compartment model, read-out: Elimination half-life (converted)) was 408 h. Further, the exposure (AUC) in data set [3] (male, Wistar, rat, topical or ocular, 5 μL of 0.5% solution per eye, intraocular injection of 5 μL of 0.5% per eye, two-compartment model, read-out: Area under the time curve AUC) was determined as 901 µg·h/mL. Moreover, in data set [3] (setting [4]), the Apparent distribution volume was 0.001676 L and the “Total clearance CLT” value was 5.55e-05 L/h.
